Reference: BindingDB's records for doi:10.1016/j.bmc.2005.09.055 (Uk Centre For Cancer Therapeutics, 2006)

Columns and labels:
[1] = molecular target: RAC-beta serine/threonine-protein kinase (Homo sapiens, UniProt P31751); experiment: PKB In Vitro Enzyme Assay
[2] = molecular target: cAMP-dependent protein kinase catalytic subunit alpha (Bos taurus, UniProt P00517); experiment: PKA In Vitro Enzyme Assay

Sequence of RAC-beta serine/threonine-protein kinase (P31751 whole entry): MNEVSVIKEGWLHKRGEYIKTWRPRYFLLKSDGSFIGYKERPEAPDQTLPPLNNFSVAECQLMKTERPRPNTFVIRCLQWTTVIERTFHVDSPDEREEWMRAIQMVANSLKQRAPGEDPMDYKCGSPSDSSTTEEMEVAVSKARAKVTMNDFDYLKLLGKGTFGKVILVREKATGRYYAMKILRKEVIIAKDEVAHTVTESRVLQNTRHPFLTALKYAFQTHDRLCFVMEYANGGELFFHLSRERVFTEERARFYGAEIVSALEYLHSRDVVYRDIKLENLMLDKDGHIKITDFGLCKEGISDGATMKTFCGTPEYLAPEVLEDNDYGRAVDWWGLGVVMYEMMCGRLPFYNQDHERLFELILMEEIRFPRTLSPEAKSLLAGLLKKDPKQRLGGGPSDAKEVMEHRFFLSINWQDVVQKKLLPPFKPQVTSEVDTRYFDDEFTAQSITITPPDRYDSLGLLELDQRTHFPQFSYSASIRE

| Structure (SMILES) | IC50 ([1]; pH 7.2, 22 °C) [µM] | IC50 [1] [µM] | other results |
| --- | --- | --- | --- |
| O=S(=O)(NCCNCCOCc1ccc(Cl)c(Cl)c1)c1cccc2cnccc12 [Isoquinoline-5-sulfonic acid (2-(2-(3,4-dichlorobenzyloxy)ethylamino)ethyl)amide] | 0.21 |  |  |
| O=S(=O)(NCCNCCOCc1cccc(Cl)c1)c1cccc2cnccc12 [Isoquinoline-5-sulfonic acid (2-(2-(3-chlorobenzyloxy)ethylamino)ethyl)amide] | 0.37 |  | IC50 ([2]; pH 7.2, 22 °C): 0.41 µM |
| COc1cccc(COCCNCCNS(=O)(=O)c2cccc3cnccc23)c1 [Isoquinoline-5-sulfonic acid (2-(2-(3-methoxybenzyloxy)ethylamino)ethyl)amide] | 2.2 |  |  |
| Cc1ccc(COCCNCCNS(=O)(=O)c2cccc3cnccc23)cc1 [Isoquinoline-5-sulfonic acid (2-(2-(4-methylbenzyloxy)ethylamino)ethyl)amide] | 1.53 |  |  |
| O=S(=O)(NC[C@H]1CC[C@@H](COCc2ccc(Cl)cc2)N1)c1cccc2cnccc12 [Isoquinoline-5-sulfonic acid (2R*,5S*)-(5-(4-chlorobenzyloxymethyl)pyrrolidin-2-yl-methyl)amide] |  | 1.7 |  |
| O=S(=O)(NC[C@@H]1C[C@@H](OCc2ccc(Cl)cc2)CN1)c1cccc2cnccc12 [Isoquinoline-5-sulfonic acid (2S,4R)-(4-(4-chlorobenzyloxy)pyrrolidin-2-yl-methyl)amide] |  | 1.7 | IC50 [2]: 0.4 µM |
| O=S(=O)(NC[C@@H]1C[C@H](OCc2ccccc2)CN1)c1cccc2cnccc12 [Isoquinoline-5-sulfonic acid (2S,4S)-(4-(benzyloxy)pyrrolidin-2-yl-methyl)amide] |  | 3.4 |  |
| O=S(=O)(NCC1CCNCC1)c1cccc2cnccc12 [Isoquinoline-5-sulfonic acid (piperidin-4-ylmethyl)amide] |  | 57 |  |
| O=S(=O)(c1cccc2cnccc12)N1CCNCC1 [Isoquinoline-5-sulfonic acid piperazin-1 ylamide] | 23 |  |  |
| O=S(=O)(NC1CCNC1)c1cccc2cnccc12 (stereo unspecified) [Isoquinoline-5-sulfonic acid pyrrolidin-3-ylamide] |  | 3.9 |  |
| N[C@H]1CC[C@H](NS(=O)(=O)c2cccc3cnccc23)CC1 [Isoquinoline-5-sulfonic acid trans-(4-aminocyclohexyl)amide] |  | 8.1 | IC50 [2]: 5.7 µM |
| O=S(=O)(NCCNCCOCc1ccccc1)c1cccc2cnccc12 [N-(2-{[2-(benzyloxy)ethyl]amino}ethyl)isoquinoline-5-sulfonamide] | 1.17 |  |  |
| NCCCNS(=O)(=O)c1cccc2cnccc12 [N-(3-aminopropyl)isoquinoline-5-sulfonamide] | 4.8 |  |  |
| O=S(=O)(NC1CCNCC1)c1cccc2cnccc12 [N-(piperidin-4-yl)isoquinoline-5-sulfonamide] | 8.7 |  | IC50 ([2]; pH 7.2, 22 °C): 3.9 µM |
| CNCCNS(=O)(=O)c1cccc2cnccc12 [N-[2-(methylamino)ethyl]isoquinoline-5-sulfonamide] |  | 7.6 |  |
| O=S(=O)(NCCNCCOCc1ccccc1Cl)c1cccc2cnccc12 [N-[2-({2-[(2-chlorophenyl)methoxy]ethyl}amino)ethyl]isoquinoline-5-sulfonamide] | 0.96 |  | IC50 ([2]; pH 7.2, 22 °C): 1 µM |

Continued, in another order:

| IC50 ([1]; pH 7.2, 22 °C) [µM] | IC50 [1] [µM] | Structure (SMILES) | other results |
| --- | --- | --- | --- |
| 6.6 |  | COc1ccccc1COCCNCCNS(=O)(=O)c1cccc2cnccc12 [N-[2-({2-[(2-methoxyphenyl)methoxy]ethyl}amino)ethyl]isoquinoline-5-sulfonamide] |  |
| 0.57 |  | Cc1ccccc1COCCNCCNS(=O)(=O)c1cccc2cnccc12 [N-[2-({2-[(2-methylphenyl)methoxy]ethyl}amino)ethyl]isoquinoline-5-sulfonamide] |  |
| 1.1 |  | Cc1cccc(COCCNCCNS(=O)(=O)c2cccc3cnccc23)c1 [N-[2-({2-[(3-methylphenyl)methoxy]ethyl}amino)ethyl]isoquinoline-5-sulfonamide] |  |
| 2.9 |  | COc1ccc(COCCNCCNS(=O)(=O)c2cccc3cnccc23)cc1 [N-[2-({2-[(4-methoxyphenyl)methoxy]ethyl}amino)ethyl]isoquinoline-5-sulfonamide] |  |
|  | 6.6 | O=S(=O)(N[C@H]1CC[C@H](NCc2ccccc2)CC1)c1cccc2cnccc12 [N-[4-(benzylamino)cyclohexyl]isoquinoline-5-sulfonamide] |  |
|  | 39 | O=S(=O)(NC[C@@H]1CCCN1)c1cccc2cnccc12 [N-[(2S)-pyrrolidin-2-ylmethyl]isoquinoline-5-sulfonamide] |  |
|  | 5.2 | O=S(=O)(N[C@H]1CN[C@H](COCc2ccc(Cl)cc2)C1)c1cccc2cnccc12 [N-[(3R,5S)-5-{[(4-chlorophenyl)methoxy]methyl}pyrrolidin-3-yl]isoquinoline-5-sulfonamide] |  |
|  | 0.52 | O=c1[nH]ccc2c(S(=O)(=O)N[C@@H]3CN[C@H](COCc4ccc(Cl)cc4)C3)cccc12 [N-[(3S,5S)-5-{[(4-chlorophenyl)methoxy]methyl}pyrrolidin-3-yl]-1-hydroxyisoquinoline-5-sulfonamide] | IC50 [2]: 1.3 µM |
|  | 2.6 | Cc1cncc2cccc(S(=O)(=O)N[C@@H]3CN[C@H](COCc4ccc(Cl)cc4)C3)c12 [N-[(3S,5S)-5-{[(4-chlorophenyl)methoxy]methyl}pyrrolidin-3-yl]-4-methylisoquinoline-5-sulfonamide] | IC50 [2]: 0.32 µM |
|  | 0.78 | O=S(=O)(N[C@@H]1CN[C@H](COCc2ccc(Cl)cc2)C1)c1cccc2cnccc12 [N-[(3S,5S)-5-{[(4-chlorophenyl)methoxy]methyl}pyrrolidin-3-yl]isoquinoline-5-sulfonamide] | IC50 [2]: 0.42 µM |
|  | 0.48 | O=S(=O)(NC[C@@H]1C[C@H](OCc2ccc(Cl)cc2)CN1)c1cccc2cnccc12 [N-{[(2S,4S)-4-[(4-chlorophenyl)methoxy]pyrrolidin-2-yl]methyl}isoquinoline-5-sulfonamide] | IC50 [2]: 0.17 µM |
